# “Also recorded” adds a separate entry of the source.
# How the values were obtained:
# [1] = tested on: antisera (from rabbit) to the p3 18-mer (SEQ ID 11); test: Targeted Epitope ELISA (competitive ELISA against plate-coated p3 18-mer P779); format: binding; settings: for binding to the antisera relative to the p3 18-mer: competitive ELISA as before, 6-mers and re-tested 9-mer P782-10
# Method: (§1) These peptides, along with the p3 18-mer (SEQ ID 11) were screened against antisera (from rabbit) to the p3 18-mer (SEQ ID 11). The screen utilized the competitive ELISA (Enzyme-linked immunosorbant assay) technique, which was used to assess the relative binding affinities of the 9-mer peptides to the 18-mer peptide.
# (§2) Briefly, the assay involved binding (coating) the p3 18-mer (P779, SEQ ID 11) to ELISA plates, followed by incubation with variables amounts of competing ligand (9-mers, SEQ ID 1-10) with the antisera (1:250 dilution). The level of binding of the antisera to p3 18-mer (P779, SEQ ID 11) was indicated by treatment with goat anti-rabbit peroxidase conjugated antibody and then by addition of a chromogenic substrate ABTS (2,2-azino-di-[3-ethylbenzthiazoline sulphonate]) and hydrogen peroxide where upon a green colour developed which was recorded as an optical density (absorbance) on a plate reader. The colour development is proportional to the level of binding of the primary antisera bound to the plate.
# A test ELISA was performed in order to ascertain the concentrations of coating peptide and competing peptides for the ELISA experiments, comprising a competitive ELISA of 9-mer P782-1 ([…])—SEQ ID 1—against 18-mer P779 ([…])—SEQ ID 11 (Mustafa, A. S. et al, supra). This 9-mer was chosen as it also overlaps with the p2 18-mer ([…])—SEQ ID 12. […] ELISA plates were coated with 2 μM solution of p3 18-mer (P779)—SEQ ID 11—and used 500 μM solutions of competing peptides, which were then subjected to four-fold serial dilution.
# A Targeted Epitope ELISA was then designed to test the importance of the C-terminal region of the epitope on binding to the antisera. Two 6-mers were synthesized, P782-11 (GNNSPA)—SEQ ID 13—and P782-12 (NNSPAV)—SEQ ID 14, which are truncated forms of their respective 9-mers and subjected these to competitive ELISA as before and also re-tested the 9-mer P782-10 (SEQ ID 10) identified as a significant epitope in the Epitope Mapping ELISA.
# [2] = tested on: antisera (from rabbit) to the p3 18-mer (SEQ ID 11); test: Epitope Mapping ELISA (competitive ELISA against plate-coated p3 18-mer P779); format: binding; settings: plates coated with 2 μM P779, competing peptides 500 μM, four-fold serial dilution, antisera 1:250
# Method: as §1, §2
# A test ELISA was performed in order to ascertain the concentrations of coating peptide and competing peptides for the ELISA experiments, comprising a competitive ELISA of 9-mer P782-1 ([…])—SEQ ID 1—against 18-mer P779 ([…])—SEQ ID 11 (Mustafa, A. S. et al, supra). This 9-mer was chosen as it also overlaps with the p2 18-mer ([…])—SEQ ID 12. […]
# [3] = Heat stability of peptide variants; format: physicochemical; settings: C-terminal variants of SGGNNSPA-X; no method or data given
Substance,binding to the antisera relative to the p3 18-mer [1],binding to the antisera relative to the p3 18-mer [2],further results
GNNSPA (listed as Mycobacterium tuberculosis) [P782-11],did not bind to the antisera,,
NNSPAV (listed as Mycobacterium tuberculosis) [P782-12],,,"binds to the antisera less tightly relative to either 9-mer P782-10 or 18-mer P779 ([1]; competitive ELISA, relative binding affinity): 1.99 fold"
QSGGNNSPA (listed as Mycobacterium tuberculosis) [P782-9],,no significant binding,
SGGNNSPAA (Modification (at position 9) of native Mycobacterium tuberculosis sequence) [SEQ ID 15],,,heat stability [3]: particularly good Leu-heat stability; also recorded: increased heat stability
SGGNNSPAV (listed as Mycobacterium tuberculosis) [P782-10],bound to the antisera as tightly as the p3 18-mer peptide P779,bound to the antisera as tightly as the p3 18-mer peptide,
